This test concerns HIV-1 single-round infectious reporter virus. Nature of the test: Single-round infectious HIV-1 luciferase reporter virus infection of HeLa CD4 CCR5 cells. It is filed as cell-based. The settings on record: Human immunodeficiency virus 1, HeLa-CD4/CCR5, 72 h, read-out: EC50 Group from Table 1. As for the experimental part:
• Virus production—Human embryonic Kidney cell line, 293, propagated in Dulbecco's Modified Eagle Medium (Life Technologies, Gaithersburg, Md.) containing 10% fetal Bovine serum (FBS, Sigma, St. Louis, Mo.). • Virus infection—Human epithelial cell line, HeLa, expressing the HIV-1 receptors CD4 and CCR5 was propagated in Dulbecco's Modified Eagle Medium (Life Technologies, Gaithersburg, Md.) containing 10% fetal Bovine serum (FBS, Sigma, St. Louis, Mo.) and supplemented with 0.2 mg/mL Geneticin (Life Technologies, Gaithersburg, Md.) and 0.4 mg/mL Zeocin (Invitrogen, Carlsbad, Calif.). Virus-Single-round infectious reporter virus was produced by co-transfecting human embryonic Kidney 293 cells with an HIV-1 envelope DNA expression vector and a proviral cDNA containing an envelope deletion mutation and the luciferase reporter gene inserted in place of HIV-1 nef sequences (Chen et al, Ref 41). Transfections were performed using lipofectAMINE PLUS reagent as described by the manufacturer (Life Technologies, Gaithersburg, Md.). Experiment • 1. Compound was added to HeLa CD4 CCR5 cells plated in 96 well plates at a cell density of 1×10^4 cells per well in 100 μl Dulbecco's Modified Eagle Medium containing 10% fetal Bovine serum at a concentration of <20 μM. • 2. 100 μl of single-round infectious reporter virus in Dulbecco's Modified Eagle Medium was then added to the plated cells and compound at an approximate multiplicity of infection (MOI) of 0.01, resulting in a final volume of 200 μl per well and a final compound concentration of <10 μM. • 3. Samples were harvested 72 h after infection. • 4. Viral infection was monitored by measuring luciferase expression from viral DNA in the infected cells using a luciferase reporter gene assay kit (Roche Molecular Biochemicals, Indianapolis, Ind.). Infected cell supernatants were removed and 50 μl of Dulbecco's Modified Eagle Medium (without phenol red) and 50 μl of luciferase assay reagent reconstituted as described by the manufacturer (Roche Molecular Biochemicals, Indianapolis, Ind.) was added per well. Luciferase activity was then quantified by measuring luminescence using a Wallac microbeta scintillation counter. • 5. The percent inhibition for each compound was calculated by quantifying the level of luciferase expression in cells infected in the presence of each compound as a percentage of that observed for cells infected in the absence of compound and subtracting such a determined value from 100. • 6. An EC50 provides a method for comparing the antiviral potency of the compounds of this invention. The effective concentration for fifty percent inhibition (EC50) was calculated with the Microsoft Excel Xlfit curve fitting software. For each compound, curves were generated from percent inhibition calculated at 10 different concentrations by using a four paramenter logistic model (model 205). Table 1 is the key for the data in Tables 2-4.
A general note: In a reporter assay the amount or activity of a reporter protein is the signal.

SMILES strings stand for the structures. pEC50: −log10 of the molar value.

The pEC50 is −log10 of the EC50, conventionally taken in molar units.

For `N#CC(=C1CCN(C(=O)C(=O)c2c[nH]c3c(-c4cc[nH]n4)ncnc23)CC1)c1ccccc1` [Example 43, 2-(1-(2-(4-(1H-pyrazol-3-yl)-5H-pyrrolo[3,2-d]pyrimidin-7-yl)-2-oxoacetyl)piperidin-4-ylidene)-2-phenylacetonitrile], the pEC50 was > 6.00.
As to `O=C(C(=O)N1CCN(C(=O)c2ccccc2)CC1)c1c[nH]c2c(-n3cncn3)ncnc12` [Example 20, 1-(4-(1H-1,2,4-Triazol-1-yl)-5H-pyrrolo[3,2-d]pyrimidin-7-yl)-2-(4-benzoylpiperazin-1-yl)ethane-1,2-dione], the pEC50 is > 6.00.
On to `CN1CCN(C(=O)c2ccn(-c3ncnc4c(C(=O)C(=O)N5CCN(C(=O)c6ccccc6)CC5)c[nH]c34)n2)CC1` [Example 14, 1-(4-Benzoylpiperazin-1-yl)-2-(4-(3-(1-methylpiperazine-4-carbonyl)-1H-pyrazol-1-yl)-5H-pyrrolo[3,2-d]pyrimidin-7-yl)ethane-1,2-dione], for which the pEC50 was > 6.00.
For `CCOc1ncnc2c(C(=O)C(=O)N3CCN(C(=O)c4ccccc4)CC3)c[nH]c12` [Example 10, 1-(4-Benzoylpiperazin-1-yl)-2-(4-ethoxy-5H-pyrrolo[3,2-d]pyrimidin-7-yl)ethane-1,2-dione], the negative-log EC50 (pEC50) was > 6.00.
The same measure for `O=C(C(=O)N1CCN(C(=O)c2ccccc2)CC1)c1c[nH]c2c(-n3cccn3)ncnc12` [Example 6, 1-(4-Benzoyl-piperazin-1-yl)-2-(4-pyrazol-1-yl-5H -pyrrolo[3,2-d]pyrimidin-7-yl)-ethane-1,2-dione]: > 6.00; for `O=C(C(=O)N1CCC(=C(c2ccccc2)c2nnco2)CC1)c1c[nH]c2c(-n3cccn3)ncnc12` [Example 37, 1-(4-((1,3,4-Oxadiazol-2-yl)(phenyl)methylene)piperidin-1-yl) -2-(4-(1H-pyrazol-1-yl)-5H-pyrrolo[3,2-d]pyrimidin-7-yl)ethane-1,2-dione]: > 6.00; for `Cc1ccn(-c2ncnc3c(C(=O)C(=O)N4CCN(C(=O)c5ccccc5)CC4)c[nH]c23)n1` [Example 3, 1-(4-Benzoyl-piperazin-1-yl)-2-[4-(3-methyl-pyrazol-1-yl)-5H-pyrrolo[3,2-d]pyrimidin-7-yl]-ethane-1,2-dione]: > 6.00.
For `Cc1ncn(-c2ncnc3c(C(=O)C(=O)N4CCN(C(=O)c5ccccc5)CC4)c[nH]c23)n1` [Example 7, 1-(4-Benzoyl-piperazin-1-yl)-2-[4-(3-methyl-[1,2,4]triazol-1-yl)-5H-pyrrolo[3,2-d]pyrimidin-7-yl]-ethane-1,2-dione] the value was > 6.00; for `O=C(C(=O)N1CCN(C(=O)c2ccccc2)CC1)c1c[nH]c2c(-n3ccc(-c4ccccc4)n3)ncnc12` [Example 15, 1-(4-Benzoylpiperazin-1-yl)-2-(4-(3-phenyl-1H -pyrazol-1-yl)-5H-pyrrolo[3,2-d]pyrimidin-7-yl)ethane-1,2-dione], > 6.00.
Take `N#Cc1ncnc2c(C(=O)C(=O)N3CCN(C(=O)c4ccccc4)CC3)c[nH]c12` [Example 12, 7-(2-(4-Benzoylpiperazin-1-yl)-2-oxoacetyl)-5H-pyrrolo[3,2-d]pyrimidine-4-carbonitrile]: the pEC50 was > 6.00.
Turning to `O=C(C(=O)N1CCN(C(=O)c2ccccc2)CC1)c1c[nH]c2c(N3CCN(C(=O)c4cc[nH]n4)CC3)ncnc12` [Example 41, 1-(4-(4-(1H-Pyrazole-3-carbonyl)piperazin-1-yl)-5H -pyrrolo[3,2-d]pyrimidin-7-yl)-2-(4-benzoylpiperazin-1-yl)ethane-1,2-dione], the pEC50 is > 6.00.
The same measure for `O=C(C(=O)N1CCC(=C(c2ccccc2)c2nnco2)CC1)c1c[nH]c2c(-n3cncn3)ncnc12` [Example 36, 1-(4-((1,3,4-Oxadiazol-2-yl)(phenyl)methylene)piperidin-1-yl) -2-(4-(1H-1,2,4-triazol-1-yl)-5H-pyrrolo[3,2-d]pyrimidin-7-yl)ethane-1,2-dione]: > 6.00; for `O=C(C(=O)N1CCC(=C(c2ccccc2)c2nnco2)CC1)c1c[nH]c2c(Cl)ncnc12` [Example 35]: > 6.00.
The same measure for `N#CC(=C1CCN(C(=O)C(=O)c2c[nH]c3c(Cl)ncnc23)CC1)c1ccccc1` [Example 33, 2-(1-(2-(4-Chloro-5H-pyrrolo[3,2-d]pyrimidin-7-yl)-2-oxoacetyl)piperidin-4-ylidene)-2-phenylacetonitrile]: > 6.00; for `COc1ccc(-c2ccn(-c3ncnc4c(C(=O)C(=O)N5CCN(C(=O)c6ccccc6)CC5)c[nH]c34)n2)cc1` [Example 17, 1-(4-Benzoylpiperazin-1-yl)-2-(4-(3-(4-methoxyphenyl)-1H-pyrazol-1-yl)-5H-pyrrolo[3,2-d]pyrimidin-7-yl)ethane-1,2-dione]: > 6.00.

The values above are taken from patent US7902204B2 (priority 2003, dated 2011).
